For data set [1], the system named is epileptic seizures. Conditions: taken chronically; patients who suffer from frequent seizures; cited from earlier work.
Data set [2] relates to recurrent migraine headaches. The data set can be described thus: Oral levetiracetam as a prophylactic agent, small-scale open-label trial. It counts as in vivo. The note with it: chronic daily oral treatment, 250 to 750 mg tablets; substantial fraction of patients. An excerpt:
A limited number of patients who were being treated by the Applicant for recurrent migraine headaches were placed on a regimen of daily oral levetiracetam, in a small-scale open-label trial. […] In general, the recurrent migraine patients who were chosen for this type of experimental trial were those who had not responded adequately to various other known candidate treatments. Patients kept daily records of the frequency of their migraine headaches, and also kept logs that recorded the severity of each headache, on a subjective scale of 1 to 10, with 1 being mild, and 10 being extremely intense pain.

The conditions of data set [3]: over a wide dose range; cited from earlier work.
Data set [4] relates to intractable migraine headache. Briefly: Injectable (intravenous) levetiracetam for acute migraines, open-label study. The format is in vivo, patients. How it is done: Sterile, preservative-free liquid preparations of levetiracetam, at concentrations of 200 mg/ml or 400 mg/ml, was prepared in a laminar flow hood by a compounding pharmacist. Particulate matter was filtered out through a series of filtrations and the solution was stabilized at a pH of 6.0. The resulting solution was clear. 29 patients were treated (19 female and 10 male), and a total of 42 intractable migraines were treated in this study. Their age range was 26 to 59 (mean age, 44 years). All patients had failed treatment with their usual migraine-specific or abortive therapies. Most patients (n=24) were in the second or third day of intractable migraine headache. 5 patients were treated on more than one occasion (1 patient was treated 6 separate times; 1 patient, 5 times, 1 patient, 3 times; and 2 patients, twice each). 6 patients (21%) were already on levetiracetam orally at the time of intravenous treatment. 23 were naive to levetiracetam at the time of treatment. Patients were treated in the setting of a headache clinic. An antecubital line was started and pulse oximetry monitoring was employed throughout treatment. No other medications were given orally or intravenously to treat the migraine. In a typical treatment for a first-time patient, a test dose of 400 mg levetiracetam was given, and then 400-600 mg was given every 5 minutes, until maximum effect was reported by the patient. The average dosage given intravenously was 5940 mg (range 400 to 16,000 mg). The average time to best response after treatment was 66 min (range=20-120 min). Prior to treatment, migraine severity (reported by each patient on a 0 to 10 numeric rating scale (NRS), with 10 representing the absolute worst possible pain) was 8.4. After treatment, it was 1.6, which represents a mean reduction of 81% in migraine severity. 16 patients (55%), representing 21 of 42 episodes, had complete resolution of their ongoing migraine, to a reported severity of zero. Only one patient had no reported response to the treatment.

In the case of `CC[C@@H](C(N)=O)N1CCCC1=O` [levetiracetam], the “reduction of the frequency of epileptic seizures” value in data set [1] is recorded as 15 to 30%. In data set [2], the “reduced frequency and/or reduced severity of migraine headaches” value was “substantial benefits”. In data set [3], the tolerability / toxicity result is recorded as “well tolerated over a wide dose range with no apparent toxicity”. Further, in data set [4] (intravenous), the “episodes with complete resolution of ongoing migraine” value is recorded as 21 of 42 episodes and the side effects result is given as “minimal”. In data set [4] (intravenous, 29 patients, 42 migraines), the “time to best response after treatment, range” value lay in the range of 20 to 120 min. Also, the “mean reduction in migraine severity” value in data set [4] (intravenous, NRS 8.4 prior to treatment vs 1.6 after) came to 81%. Further, the “average time to best response after treatment” value in data set [4] (intravenous, average dosage 5940 mg, 29 patients, 42 migraines) is 66 min. In data set [4] (intravenous, nausea and drowsiness), the “time until side effects dissipated spontaneously” value lay within 30 to 90 min. Besides, in data set [4] (intravenous, of 29 patients), the patients reporting drowsiness is reported as 2 patients; the “patients reporting transient nausea” value is listed as 3 patients; the “patients with complete resolution of ongoing migraine, to a reported severity of zero” value was 16 patients; the “patients with no reported response to the treatment” value is “one”. Also, the “share of patients with complete resolution of ongoing migraine” value in data set [4] (intravenous, of 29 patients) was determined as 55%. Besides, the “migraine severity after treatment (0 to 10 numeric rating scale, NRS)” value in data set [4] (intravenous, severity prior to treatment was 8.4) was 1.6. Further, in data set [4] (one patient), the “outcome in patient treated for a combination of cluster headaches and migraines” value is on record as “resolution of both”.

(Values after patent US20040116506A1, “Use of levetiracetam for treating or preventing acute headaches” (priority 2002, published 2004).)
